Converted amounts (≈) assume the structure as drawn. Read-outs that look alike come from different tables or passages of the source.
Legend:
[1] = target: human recombinant FAAH (Homo sapiens (Human), UniProt O00519); assay: In vitro inhibition of FAAH activity (fluorescent inhibitor screening kit, AMC arachidonoyl amide); assay type: biochemical
Procedure, shortened: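 Fluorogenic kit assay: AMC arachidonoyl amide is cleaved by human recombinant FAAH, read at 340-360/450-465 nm. Percent inhibition versus non-treated control; IC50 values derived from multiple compound concentrations where tested.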

[2] = target: human recombinant MAGL (Homo sapiens (Human), UniProt Q99685); assay: In vitro inhibition of MAGL activity (inhibitor screening kit, 4-nitrophenylacetate); assay type: biochemical; settings: human recombinant MAGL
human recombinant MAGL, sequence (Q99685 whole entry): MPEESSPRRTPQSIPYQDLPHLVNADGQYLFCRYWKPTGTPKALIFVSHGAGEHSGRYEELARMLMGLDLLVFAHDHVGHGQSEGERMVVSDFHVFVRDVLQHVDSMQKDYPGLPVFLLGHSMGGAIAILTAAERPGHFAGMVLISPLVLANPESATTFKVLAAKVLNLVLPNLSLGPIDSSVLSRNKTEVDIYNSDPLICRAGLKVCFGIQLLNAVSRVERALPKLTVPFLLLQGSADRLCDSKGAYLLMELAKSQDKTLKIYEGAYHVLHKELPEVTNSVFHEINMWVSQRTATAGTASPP
Procedure, shortened: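 Percent inhibition derived from absorbance (405-412 nm) of treated wells relative to untreated enzyme control. Human recombinant MAGL with 4-nitrophenylacetate substrate, whose cleavage yields yellow 4-nitrophenol.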

[3] = Aqueous solubility in PBS buffer pH 7.4 (LC-MS); assay type: physicochemical; settings: phosphate buffer, kinetic from dmso stock, PBS buffer pH 7.4, room temperature, spiked at 100 μM from DMSO stock
Procedure: Compounds as described herewith were analyzed for their aqueous solubility.
The aqueous solubility of compounds were determined using standard protocols. To illustrate the experimental protocol, the analysis of a representative compound is described. Exemplary compound of Example 158 (MW: 380.4 g/mol) was analyzed in a buffer system at specified pH (phosphate buffer, pH 7.4). This was accomplished by spiking a DMSO stock solution of the test compound at a final concentration of 100 μM in buffer.
Solubility calculation: This is a quantitative assay. The mixture at the end of the assay is filtered by 0.22 micron syringe filter and after 5× dilution in diluent, it was analyzed versus a calibration curve using LC-MS.

[4] = Plasma stability (LC-MS/MS, % parent compound remaining, half-life); assay type: in vitro ADME; settings: human plasma; for half-life at 1 μM: 37° C., 0-240 mins, read-out: Human Plasma Stability (t1/2, min); for plasma stability and/or aqueous solubility compared to reference compound URB597: see Table 5
Procedure: Exemplary compounds described herewith were assayed for plasma stability (various species).
Plasma was removed from deep freezer and allowed to thaw at room temperature (or at 37° C. if needed). Plasma was then centrifuged at 4,000 rpm at RT for 10 min and supernatant was collected and used for the assay: • Drug test tubes: 297 μL plasma/drug test tube, duplicate/drug. • Blank test tubes: 297 μL plasma/Blank test tube, duplicate, too. (Optional, if assay system is stable and consistent) • T0 plasma tube: […] X No. of total sample tubes+50 μL extra for T0 extraction. • (Note: equivalent proportion of solvent mixture as added in drug test tubes will be added before T0 extraction!)
Take out the pre-warmed plasma tubes from the 37° C. incubator. Add 3 μL of 100 μM stock solution (or, equivalent proportion of the solvent mixture to T0 plasma tube for T0 extraction) to each corresponding sample tubes in order, vortex gently (3×) to mix. Finish the sample tubes orderly and quickly, then transfer them to the Thermomixer (program & 37° C. ready), and start the Thermomixer. Record starting time on paper & start the timer for 15 min for the 1st sampling time point.
Now add the equivalent amount of solvent mixture to the T0 plasma tube, mix, and transfer 50 μL plasma to each of the T0 extracting tubes, vortex 20s and placed on ice. Vortex 10s again before centrifuging the samples at 14,000 rpm for 5 min at 4° C.
Repeat the above procedures at each time point (15, 30, 60, 120, 240 min) by transferring 50 μL plasma samples from the testing tubes to the corresponding extracting tubes, in the same order and time scheme as in the addition of the drug to the plasma samples at the beginning of the study.
• Kel=Slope of LN % PCR vs time
Half life (t½)=0.693/Kel (1)

[5] = Pharmacokinetic study in rats, IV and oral gavage, with brain penetration; assay type: in vivo, rat; settings: for Cmax exposure relative to URB597: 10 mg/kg PO vs URB597 at 250 mg/kg; for clearance: read-out: CLp; for Vd: read-out: Vdss; for improvement in oral exposure maximums compared to URB597: dose-adjusted (25× lower dose, 10× Cmax); for Kp at 0.5 h: read-out: Brain/Plasma ratio (0.5 h); for Kp at 1 h: read-out: Brain/Plasma ratio (1 h)
Procedure: In pharmacokinetic (PK) studies, animals were administered compounds of the present disclosure and PK parameters were measured. Rats (male, Sprague Dawley) were administered compound of Example 158 at a dose of 1.0 mg/kg intravenously (IV) or 10 mg/kg via oral gavage (PO). Blood samples were taken at t=0.083, 0.25. 0.5, 1, 2, 4, 6, 8 and 24 h post-dose and the plasma was analyzed for concentration of test article (compound of Example 158). Using standard analytical methodology (HPLC analysis), the following parameters were obtained:
Rats were administered compound of Example 172 at a dose of 1.0 mg/kg intravenously (IV) or 10 mg/kg via oral gavage (PO). Using standard analytical methodology (HPLC analysis), the following parameters were obtained: […]

[6] = FAAH, values as listed in Table 5, read-out: IC50
[7] = human recombinant FAAH, read-out: Inhibition on FAAH activity (IC50)
[8] = Sprague Dawley, plasma, rat (SD, male), IV 1.0 mg/kg, read-out: AUC0-Y (ng h/mL), IV
[9] = Sprague Dawley, plasma, rat (SD, male), IV 1.0 mg/kg
[10] = Sprague Dawley, plasma, rat (SD, male), IV 1.0 mg/kg, read-out: t1/2 (h), IV (converted)
[11] = male, Sprague Dawley, brain, intravenous, 1 mg/kg, rat
[12] = male, Sprague Dawley, brain, rat
[13] = male, Sprague Dawley, plasma, rat, PO 10.0 mg/kg
[14] = male, Sprague Dawley, plasma, rat, PO 10.0 mg/kg, read-out: AUC0-Y (ng h/mL), PO
[15] = male, Sprague Dawley, plasma, rat, PO 10.0 mg/kg, read-out: Cmax
[16] = male, Sprague Dawley, plasma, rat, PO 10.0 mg/kg, read-out: Cmax (ng/mL)
[17] = male, Sprague Dawley, plasma, rat, PO 10.0 mg/kg, read-out: t1/2 (h), PO (converted)
[18] = rat, PO 10.0 mg/kg vs IV 1.0 mg/kg

human recombinant FAAH, sequence (O00519 whole entry): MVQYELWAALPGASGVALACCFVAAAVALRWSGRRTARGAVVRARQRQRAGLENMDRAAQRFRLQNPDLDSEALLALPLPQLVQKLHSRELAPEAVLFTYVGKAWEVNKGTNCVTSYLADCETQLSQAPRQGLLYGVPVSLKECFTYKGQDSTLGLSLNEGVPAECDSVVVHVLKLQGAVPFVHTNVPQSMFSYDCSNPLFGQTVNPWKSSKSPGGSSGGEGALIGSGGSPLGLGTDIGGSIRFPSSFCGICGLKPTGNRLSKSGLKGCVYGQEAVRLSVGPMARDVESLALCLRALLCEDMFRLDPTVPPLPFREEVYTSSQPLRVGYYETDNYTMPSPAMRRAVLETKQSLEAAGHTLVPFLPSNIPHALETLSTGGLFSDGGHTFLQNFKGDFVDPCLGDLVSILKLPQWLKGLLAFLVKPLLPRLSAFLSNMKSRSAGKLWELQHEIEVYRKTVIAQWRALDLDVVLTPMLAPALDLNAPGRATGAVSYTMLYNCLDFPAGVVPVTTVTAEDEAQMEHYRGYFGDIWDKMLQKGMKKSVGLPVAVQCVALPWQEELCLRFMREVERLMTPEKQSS

COc1ccc(OC(=O)NC2CCCCCC2)cc1-c1cncc(-c2nnco2)c1 [Example 172, 3-(5-(1,3,4-oxadiazol-2-yl)pyridin-3-yl)-4-methoxyphenyl cycloheptylcarbamate]
IC50 [1, 6]: 112 nM
IC50 [1, 7]: 112 nM
IC50 [2]: > 10 µM
solubility [3]: 16.2 µM (≈ 6.62 µg/mL)
half-life at 1 μM [4]: 361 min
plasma stability and/or aqueous solubility compared to reference compound URB597 [4]: improved plasma stability, improved aqueous solubility, or improved plasma stability and aqueous solubility
Cmax exposure relative to URB597 [5]: ~10 ×
AUC [5, 8]: 424 ng·h/mL
clearance [5, 9]: 40 mL/min/kg
Vd [5, 9]: 1.58 L/kg
half-life [5, 10]: 0.8 h
improvement in oral exposure maximums compared to URB597 [5]: ~250 ×
Kp at 0.5 h [5, 11]: 0.15
Kp at 1 h [5, 11]: 0.19
Kp at 0.5 h [5, 12]: 0.15
Kp at 1 h [5, 12]: 0.19
Kp ([5]; male, Sprague Dawley, brain, rat, time not stated, read-out: Brain/Plasma ratio): > 0.15
Tmax [5, 13]: 30 min
AUC [5, 14]: 5260 ng·h/mL
Cmax [5, 15]: 5.91 µM
Cmax [5, 16]: 2250 ng/mL
half-life [5, 17]: 1.25 h
Co ([5]; rat (SD, male), IV 1.0 mg/kg): 1528 ng/mL
Co [uM] ([5]; rat (SD, male), IV 1.0 mg/kg): [4.02 uM]
AUC0-Y (ng h/mL), PO ([5]; rat, PO 10.0 mg/kg): 5257 ng·h/mL
F (%) oral bioavailability [5, 18]: >100%

O=C(NC1CCCCC1)Oc1ccc(O)c(-c2cncc(-c3nnco3)c2)c1 [Example 158, 3-(5-(1,3,4-oxadiazol-2-yl)pyridin-3-yl)-4-hydroxyphenyl cyclohexylcarbamate]
IC50 [1, 6]: 127 nM
IC50 [1, 7]: 124 nM
IC50 [2]: > 50 µM
solubility [3]: 92.5 µM (≈ 35.2 µg/mL)
half-life at 1 μM [4]: 350 min
plasma stability and/or aqueous solubility compared to reference compound URB597 [4]: improved plasma stability, improved aqueous solubility, or improved plasma stability and aqueous solubility
Cmax exposure relative to URB597 [5]: ~10 ×
AUC [5, 8]: 1340 ng·h/mL
clearance [5, 9]: 12 mL/min/kg
Vd [5, 9]: 0.62 L/kg
half-life [5, 10]: 0.31 h
improvement in oral exposure maximums compared to URB597 [5]: ~250 ×
Kp at 0.5 h [5, 12]: 0.01
Kp at 1 h [5, 12]: 0.02
Tmax [5, 13]: 30 min
AUC [5, 14]: 7050 ng·h/mL
Cmax [5, 15]: 5.05 µM
Cmax [5, 16]: 1920 ng/mL
half-life [5, 17]: 2.85 h
bioavailability ([5]; male, Sprague Dawley, rat, plasma, oral, 10 mg/kg, rat, PO 10.0 mg/kg vs IV 1.0 mg/kg, read-out: F (%) oral bioavailability): 53%
Co ([5]; rat (SD, male), IV 1.0 mg/kg): 4829 ng/mL
Co [uM] ([5]; rat (SD, male), IV 1.0 mg/kg): [12.7 uM]
AUC0-Y (ng h/mL), PO ([5]; rat, PO 10.0 mg/kg): 7054 ng·h/mL
t1/2 (h), PO ([5]; rat, PO 10.0 mg/kg): 2.85 h
F (%) oral bioavailability [5, 18]: > 50%

O=C(Oc1cccc(-c2cncc(-c3nnco3)c2)c1)N1CC2(CCC2)C1 [Example 146, 3-(5-(1,3,4-oxadiazol-2-yl)pyridin-3-yl)phenyl 2-azaspiro[3.3]heptane-2-carboxylate]
IC50 [1, 6]: 401 nM
IC50 [1, 7]: 401 nM
IC50 [2]: > 10 µM
solubility [3]: 82.7 µM (≈ 30 µg/mL)
half-life at 1 μM [4]: 186 min
plasma stability and/or aqueous solubility compared to reference compound URB597 [4]: improved plasma stability, improved aqueous solubility, or improved plasma stability and aqueous solubility

O=C(NC1CCCCCC1)Oc1ccc(F)c(-c2cncc(-c3ncco3)c2)c1 [Example 87, 4-fluoro-3-(5-(oxazol-2-yl)pyridin-3-yl)phenyl cycloheptylcarbamate]
IC50 [1, 6]: 23.9 nM
IC50 [1, 7]: 23.9 nM
IC50 [2]: > 10 µM
solubility [3]: 8.6 µM (≈ 3.4 µg/mL)
half-life at 1 μM [4]: 7 min

O=C(NC1CCCCC1)Oc1cccc(-c2cncc(-c3ccco3)c2)c1 [Example 51, 3-(5-(furan-2-yl)pyridin-3-yl)phenyl cyclohexylcarbamate]
IC50 [1, 6]: 76.1 nM
IC50 [1, 7]: 76.1 nM
IC50 [2]: > 10 µM
solubility [3]: 1.4 µM (≈ 0.507 µg/mL)
half-life at 1 μM [4]: 8 min

O=C(NC1CCCCCC1)Oc1ccc(O)c(-c2cncc(-c3ncn[nH]3)c2)c1 [Example 231, 3-(5-(1H-1,2,4-triazol-5-yl)pyridin-3-yl)-4-hydroxyphenyl cycloheptylcarbamate]
IC50 [1, 6]: 137 nM
IC50 [1, 7]: 137 nM
IC50 [2]: > 10 µM
solubility [3]: 78.8 µM (≈ 31 µg/mL)
half-life at 1 μM [4]: 634 min
plasma stability and/or aqueous solubility compared to reference compound URB597 [4]: improved plasma stability, improved aqueous solubility, or improved plasma stability and aqueous solubility

O=C(NC1CCCCCC1)Oc1ccc(OC(F)(F)F)c(-c2cncc(-c3ncco3)c2)c1 [Example 91, 3-(5-(oxazol-2-yl)pyridin-3-yl)-4-(trifluoromethoxy)phenyl cycloheptylcarbamate]
IC50 [1, 6]: 492 nM
IC50 [1, 7]: 100 to 1000 nM
IC50 [2]: > 10 µM
solubility [3]: 2.4 µM (≈ 1.11 µg/mL)
half-life at 1 μM [4]: 14 min

O=C(NC1CCCCCC1)Oc1cccc(-c2cncc(-c3ncn[nH]3)c2)c1 [Example 225, 3-(5-(1H-1,2,4-triazol-5-yl)pyridin-3-yl)phenyl cycloheptyl carbamate]
IC50 [1, 6]: 176 nM
IC50 [1, 7]: 176 nM
IC50 [2]: ~10 µM
solubility [3]: 8.6 µM (≈ 3.25 µg/mL)
half-life at 1 μM [4]: 47 min
plasma stability and/or aqueous solubility compared to reference compound URB597 [4]: improved plasma stability, improved aqueous solubility, or improved plasma stability and aqueous solubility

O=C(NC1CCCCCC1)Oc1cc(O)cc(-c2cncc(-c3nnco3)c2)c1 [Example 165, 3-(5-(1,3,4-oxadiazol-2-yl)pyridin-3-yl)-5-hydroxyphenyl cycloheptylcarbamate]
IC50 [1, 6]: 25.8 nM
IC50 [1, 7]: 25.8 nM
IC50 [2]: > 10 µM
solubility [3]: 22.6 µM (≈ 8.91 µg/mL)
half-life at 1 μM [4]: 28 min

O=C(NC1CCCCC1)Oc1cccc(-c2cncc(-c3nnco3)n2)c1 [Example 267, 3-(6-(1,3,4-oxadiazol-2-yl)pyrazin-2-yl)phenyl cyclohexylcarbamate]
IC50 [1, 6]: 140 nM
IC50 [1, 7]: 140 nM
IC50 [2]: > 10 µM
solubility [3]: 73.6 µM (≈ 26.9 µg/mL)
half-life at 1 μM [4]: 12 min

COc1cc(OC(=O)NC2CCCCCC2)cc(-c2cncc(-c3nnco3)c2)c1 [Example 179, 3-(5-(1,3,4-oxadiazol-2-yl)pyridin-3-yl)-5-methoxyphenyl cycloheptylcarbamate]
IC50 [1, 6]: 91.1 nM
IC50 [1, 7]: 91.1 nM
IC50 [2]: 10 to 50 µM
solubility [3]: 9.2 µM (≈ 3.76 µg/mL)
half-life at 1 μM [4]: 18 min

CSc1ccc(OC(=O)NC2CCCCCC2)cc1-c1cncc(-c2nnco2)c1 [Example 191, 3-(5-(1,3,4-oxadiazol-2-yl)pyridin-3-yl)-4-(methylthio)phenyl cycloheptylcarbamate]
IC50 [1, 6]: 153 nM
IC50 [1, 7]: 153 nM
IC50 [2]: > 10 µM
solubility [3]: 11.9 µM (≈ 5.05 µg/mL)
half-life at 1 μM [4]: 31 min
plasma stability and/or aqueous solubility compared to reference compound URB597 [4]: improved plasma stability, improved aqueous solubility, or improved plasma stability and aqueous solubility

Reference: patent publication US20250129027A1 (APOGEE PHARMACEUTICALS, INC., priority 2023, published 2025)
